Laboratory results taken from paper PMC8699189 (Biomolecules, 2021).

Biological target: T1, MavL(42-435) (Legionella pneumophila, UniProt Q5ZSJ1)
T1 construct: gene lpg2526
Conditions: 15 mM Tris-HCl pH 8.0, 50 mM NaCl, 20 °C; 300 µM ligand into 30 µM protein

T1 sequence (Q5ZSJ1 42-435 limits assumed): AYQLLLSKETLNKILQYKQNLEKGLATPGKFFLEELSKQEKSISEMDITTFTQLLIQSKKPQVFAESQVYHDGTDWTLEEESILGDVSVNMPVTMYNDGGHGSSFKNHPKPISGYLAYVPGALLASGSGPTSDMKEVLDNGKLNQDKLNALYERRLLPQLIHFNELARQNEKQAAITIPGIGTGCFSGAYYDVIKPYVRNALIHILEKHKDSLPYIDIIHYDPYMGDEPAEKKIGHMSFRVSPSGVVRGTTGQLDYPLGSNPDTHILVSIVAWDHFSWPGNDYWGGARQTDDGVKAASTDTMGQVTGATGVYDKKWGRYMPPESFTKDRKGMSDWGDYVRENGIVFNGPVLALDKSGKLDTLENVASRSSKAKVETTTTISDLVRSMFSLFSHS

Question: For Nc1ncnc2c1ncn2[C@@H]1O[C@H](COP(=O)(O)OP(=O)(O)OC[C@H]2OC(O)[C@H](O)[C@@H]2O)[C@@H](O)[C@H]1O (stereo partly shown) [ADP-ribose], which Kd is on record?
Answer: 13 µM
